According to patent publication US20110245228A1, “PROTEIN KINASE C ACTIVITY ENHANCER CONTAINING ALKYL ETHER DERIVATIVE OR SALT THEREOF” (Toyama Chemical Co., Ltd., priority 2006, published 2011):

Target: T1, PKCε (Rattus norvegicus, UniProt P09216)
T1 construct: endogenous in cells; host or cells: primary cultured cerebral cortex cells from 18-day Wistar/ST rat fetuses
T1 sequence (P09216 1-737): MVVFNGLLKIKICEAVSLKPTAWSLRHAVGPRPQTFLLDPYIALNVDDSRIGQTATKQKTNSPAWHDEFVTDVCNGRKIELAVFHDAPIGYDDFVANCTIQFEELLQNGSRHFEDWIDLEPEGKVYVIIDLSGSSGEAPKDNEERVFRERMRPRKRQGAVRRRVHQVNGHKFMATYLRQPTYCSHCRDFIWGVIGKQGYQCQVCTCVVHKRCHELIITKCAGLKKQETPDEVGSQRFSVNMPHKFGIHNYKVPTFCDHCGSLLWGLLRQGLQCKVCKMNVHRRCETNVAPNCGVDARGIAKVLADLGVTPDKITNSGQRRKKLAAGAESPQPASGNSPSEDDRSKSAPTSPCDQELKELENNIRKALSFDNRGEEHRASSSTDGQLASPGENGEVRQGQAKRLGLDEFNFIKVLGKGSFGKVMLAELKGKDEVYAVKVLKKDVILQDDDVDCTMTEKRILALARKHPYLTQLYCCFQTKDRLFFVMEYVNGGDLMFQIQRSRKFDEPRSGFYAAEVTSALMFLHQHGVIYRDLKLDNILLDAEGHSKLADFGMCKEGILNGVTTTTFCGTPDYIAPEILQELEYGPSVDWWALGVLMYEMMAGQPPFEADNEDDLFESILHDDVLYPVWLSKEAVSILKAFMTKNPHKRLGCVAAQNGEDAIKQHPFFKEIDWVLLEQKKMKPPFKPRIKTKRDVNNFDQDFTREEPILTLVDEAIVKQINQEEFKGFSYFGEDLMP
Assay: PKC activity enhancing effect in cultured cells (PKCε migration from cytosol to membrane fraction, western blotting)
Type: cell-based
Conditions: cultured cerebral cortex cells of Wistar/ST rat fetuses, 0.1 μmol/L in terms of T-817
Experimental: The PKC activity was determined, according to the method of Etcheberrigaray et al. (Proceedings of the National Academy of Sciences of the United States of America, 2004, Vol. 101, No. 30, p. 11141-11146), as applicable. At the time of activation, PKC migrates from the cytoplasm to membranes. The PKC level in the membrane fraction over that in the cytosol fraction was taken as the index of PKC activation. In this experiment, the activity of PKCε, a known isoform of PKC, was measured.
Cultured cells were prepared following the method of Hirata et al. (J. Pharmacol. Exp. Ther., 2005, Vol. 314, No. 1, p. 252-259). […]
On Day 8 from the start of the culturing, T-817MA was added to the cells to a final concentration of 0.1 μmol/L, in terms of T-817. […] The protein concentration in the cytosol fraction and the membrane fraction was measured, and the protein content in each sample was adjusted to a certain constant level with the extraction buffer or the extraction buffer containing Triton X-100. […] Then, after washing with PBST, the membrane was treated with ECL plus reagent (manufactured by GE Healthcare Bio-Sciences) and the luminescence was detected by a Lumino Image Analyzer. […]

Structure (SMILES): OC1CN(CCCOCCc2ccc3sccc3c2)C1 [T-817MA, 1-(3-(2-(1-benzothiophen-5-yl)ethoxy)propyl)azetidin-3-ol]
- PKCε migration from the cytoplasm to membranes (index of PKC activation) (2 hours after treatment): migrated from the cytoplasm to membranes
- PKCε migration from the cytoplasm to membranes (index of PKC activation) (4 hours after treatment): migrated from the cytoplasm to membranes
